For the experiment, the target named is Phospholipase A2 (Naja mossambica mossambica). In words: Phospholipase A2 inhibition using mixed micelles pH-stat assay and 14 kDa-Phospholipase A2 from Naja mossambica mossambica.

pIC50: −log10 of the molar value.

Compound `CCCCCCCCCCCCCCCC(=O)OCCCCCCC[C@H](COP(=O)(O)OC)NC(C)=O` [Hexadecanoic acid (R)-8-acetylamino-9-(hydroxy-methoxy-phosphoryloxy)-nonyl ester] had a pIC50 of 5.30.

Compound `CCCCCCCC(=O)OCCCCCCC[C@H](COP(=O)(O)OC)NC(C)=O` [Octanoic acid (R)-8-acetylamino-9-(hydroxy-methoxy-phosphoryloxy)-nonyl ester] gave a pIC50 of 5.51.

`CCCCCCCCCCCCCCCCOCCOCCCCCCC[C@H](COP(=O)(O)OC)NC(C)=O` [Phosphoric acid (R)-2-acetylamino-9-(2-hexadecyloxy-ethoxy)-nonyl ester methyl ester] gave a pIC50 of 5.77.

In turn, `COP(=O)(O)OC[C@@H](CCCCCCCO)NC(C)=O` [Phosphoric acid (R)-2-acetylamino-9-hydroxy-nonyl ester methyl ester] had a pIC50 of 3.46.

`CCCCCCCCCCCCCCCC[C@H](COP(=O)(O)OC)NC(C)=O` [Phosphoric acid (R)-2-acetylamino-octadecyl ester methyl ester] showed a pIC50 of 5.47.

For `COP(=O)(O)OC[C@@H](CCCCCCCOC(=O)CCC(=O)OC1CCC2(C)C(=CCC3C2CCC2(C)C(C(C)CCCC(C)C)CCC32)C1)NC(C)=O` (stereo partly drawn) [Succinic acid (R)-8-acetylamino-9-(hydroxy-methoxy-phosphoryloxy)-nonyl ester 17-(1,5-dimethyl-hexyl)-10,13-dimethyl-2,3,4,7,8,9,10,11,12,13,14,15,16,17-tetradecahydro-1H-cyclopenta[a]phenanthren-3-yl ester], the pIC50 was 5.64.

As usually defined, the pIC50 is the negative decadic logarithm of the IC50, by convention in mol/L. Low readings indicate a high IC50, high ones a low IC50.
